# Test results from PubChem BioAssay AID489041 (Sanford-Burnham Center for Chemical Genomics, 2010).
# Active and inactive are the calls of the source. No rule for the calls is given here.
# System: HEK-293T NF-kB luciferase reporter counterscreen, luminescence
# Experiment: inhibitors of HEK-293T NF-kB luciferase – HEK-293T cells, luminescence, counter-screen for T-cell antigen receptor NF-kB inhibitors, dose response (AID 489041)
row,Compound,IC50
1,CCSc1nc2ccccc2n1C(=O)/C=C\c1ccc(OC)c(OC)c1,18.2 µM
2,Clc1ccc(CSc2nncn2-c2ccc3c(c2)OCCO3)cc1,13.8 µM
3,CC(=O)NC(c1ccc(C(C)C)cc1)c1ccc2cccnc2c1O (stereo not drawn),40.7 µM (inactive)
4,CCCCCCCCCCn1c2c(c(=N)c3c1CCC3)CCC2,1.29 µM
5,O=C(Nc1ccc([N+](=O)[O-])cc1)Nc1ccon1,> 80 µM (inactive)
6,N#C/C(=C\c1ccc(OCc2ccc(C(=O)O)cc2)cc1)C(=O)N1CCOCC1,4.51 µM
7,Cc1ccc2nc(C)c(CN3CCN(c4ccc([N+](=O)[O-])cc4Cl)CC3)n2c1,6.8 µM
8,COc1ccc(C(C(=O)NC2CCCCC2)N(C(=O)CCl)c2ccc(C)cc2)cc1 (stereo not drawn),> 80 µM (inactive)
9,Cc1ccc(S(=O)(=O)/N=C2\C=C(Nc3ccc(O)cc3)C(=O)c3ccccc32)cc1,0.78 µM
10,COc1ccc(OC)c(Nc2cc(-c3ccccc3)nc(N)n2)c1,3.41 µM
11,O=C(Nc1ccc(S(=O)(=O)N2CCN(Cc3ccccc3)CC2)cc1)c1cnccn1,1.51 µM
12,CCOc1cc(C#N)c(NC(=O)c2cccnc2)cc1OCC,37.7 µM (inactive)
13,Cc1ccc(C(=O)c2cc([N+](=O)[O-])ccc2N2CCOCC2)c(C)c1,4.92 µM
14,O=Cc1cc2ccccc2nc1SCc1ccc(Cl)c(Cl)c1,5.54 µM
15,COc1ccc(CCNc2nnc(Sc3nnnn3-c3ccccc3)s2)cc1OC,8.36 µM
16,CCOc1cccc(-c2nnc3n2N=C(c2cc(OC)ccc2OC)CS3)c1,4.82 µM
17,Cc1c(C(=O)N2CCOCC2)[nH]c2c1C(=O)CC(c1ccccc1Cl)C2 (stereo not drawn),13.8 µM
18,Cc1cccc(OCCNC(=O)c2ccc(Cl)c(S(=O)(=O)NCc3cccnc3)c2)c1,10.1 µM
19,O=c1cc(-c2ccccc2)[nH]c2cc(F)ccc12,2.62 µM
20,CC(=O)O[C@@]12CO[C@@H]1C[C@H](O)[C@@]1(C)C(=O)[C@H](O)C3=C(C)[C@@H](OC(=O)[C@H](O)[C@@H](NC(=O)c4ccccc4)c4ccccc4)C[C@@](O)([C@@H](OC(=O)c4ccccc4)C12)C3(C)C (stereo partly drawn),> 80 µM (inactive)
21,O=C(c1cc(-c2ccncc2)nc2c(Cl)cccc12)N1CCN(c2ccccc2F)CC1,12.5 µM
22,Cc1ccc(S(=O)(=O)Nc2cccc(-c3ccc4nncn4n3)c2)cc1,18.4 µM
23,COc1ccccc1-c1nnc2sc(-c3ccc(N(C)C)cc3)nn12,2.32 µM
24,O=C1c2cccc3cc([N+](=O)[O-])cc(c23)C(=O)N1CCN1CCCC1,> 80 µM (inactive)
25,Cc1ccc(N2C(=O)c3cccc4c(N)ccc(c34)C2=O)c2cccnc12,< 0.16 µM
26,COc1cc(-c2noc(C)c2-c2ccc(N(C)C)nc2)cc(OC)c1OC,1.94 µM

row,Compound,IC50
1,O=c1cc(-c2ccccc2)[nH]c2ccccc12,15.5 µM
2,COc1cccc(N2CCN(C(=O)c3ccc(CS(=O)c4ccccc4Cl)o3)CC2)c1 (stereo not drawn),6.1 µM
3,Cc1ccc(C)c(NS(=O)(=O)c2ccc(-c3cnc(C4CC4)o3)cc2)c1,0.42 µM
4,COc1ccccc1N=C(C)C1=C(O)CC(c2ccccc2)CC1=O (stereo not drawn),0.78 µM
5,Cc1cccc(N2CCN(C(=O)c3c(-c4ccccc4Cl)noc3C)CC2)c1C,6.03 µM
6,Cn1nc(C(C)(C)C)cc1C(=O)NCc1cc(F)cc2c1OCOC2,2.47 µM
7,C[C@]12CC[C@H]3[C@@H](CC[C@]4(O)C[C@@H](O)CC[C@]34C=O)[C@@]1(O)CC[C@@H]2C1=CC(=O)OC1,0.34 µM
8,CCOC(=O)c1ccc(NC(=O)Cn2cnc3cc(C)c(C)cc32)cc1,0.88 µM
9,CN1/C(=C\C(=O)C[n+]2ccc3ccccc3c2)C(C)(C)c2ccccc21,4.62 µM
10,CCOCCCNC(=O)c1cc2c(=O)n3cccc(C)c3nc2n1C,> 80 µM (inactive)
11,COc1cccc(/C=N/Nc2ncnc3scc(-c4ccccc4)c23)c1O,4.6 µM
12,Cc1ccnc2c1ccc1c(C)ccnc12,> 80 µM (inactive)
13,Cc1noc(C)c1COc1cccc(C(=O)OCC(=O)N2CC(=O)Nc3ccccc32)c1,24.9 µM (inactive)
14,COc1cc(C2C(C#N)=C(N)Oc3cc4c(cc32)OCO4)cc(OC)c1OC (stereo not drawn),3.86 µM
15,Cc1cc(-n2c(C)cc(C(=O)CSc3ncnc4ccccc34)c2C)no1,3 µM
16,COc1cccc(N2CCN(C(=O)c3cn(Cc4ccccc4)nc3-c3cccnc3)CC2)c1,16.4 µM
17,CCN(CC)S(=O)(=O)c1ccc(NC(=O)c2ccc(CN3CCOCC3)cc2)cc1,2.54 µM
18,C[C@]12CC[C@H](O)C[C@H]1CC[C@@H]1[C@@H]2CC[C@]2(C)[C@@H](C3=CC(=O)OC3)CC[C@]12O,< 0.16 µM
19,C/C(=N\NC(=O)c1cc(C)nc2ccccc12)c1ccccn1,3.06 µM
20,CCCCC(=O)NC(c1ccc(N(CC)CC)cc1)c1ccc2cccnc2c1O (stereo not drawn),> 80 µM (inactive)
21,O=[N+]([O-])c1ccc(-c2nc(C(Cl)Cl)c3ccccc3n2)cc1,54.5 µM (inactive)
22,CCOC(=O)C(C)Oc1cccc2c(=O)n(CC(=O)NCc3ccc4c(c3)OCO4)ccc12 (stereo not drawn),2.23 µM
23,C=C1C(=O)C=C2CN(C(=O)c3ccccc3)[C@@](Cc3ccc(F)cc3)(C(=O)OC)[C@@H]12,11 µM
24,CCN1C=CC(=C2C(=O)c3ccccc3C2=O)C=C1,0.92 µM
25,CCOc1ccc(N(CC(=O)Nc2ccccc2C)S(=O)(=O)c2c(C)noc2C)cc1,17 µM
26,Cc1ccc(C(=O)c2cc([N+](=O)[O-])ccc2N2CCCCC2)cc1C,6.16 µM

row,Compound,IC50
1,O=C(NCCc1ccccc1)c1ccc2c(c1)OCCO2,1.3 µM
2,Cc1ccc(/C=N/NC(=O)c2c(C)nc3ccc(Br)cn23)cc1,> 80 µM (inactive)
3,CCc1ccc(/C=N/NC(=O)c2cc(C3CC3)nc3ccccc23)s1,10.3 µM
4,CCCCC(=O)NC(c1ccc(Cl)cc1)c1ccc2cccnc2c1O (stereo not drawn),> 80 µM (inactive)
5,COc1ccc(Br)cc1/C(C)=N/NC1=NCCN1,9.87 µM
6,COc1ccccc1C(=O)Nc1nc2ccccc2s1,0.8 µM
7,c1ccc(-c2noc(-c3ccc4ccccc4c3)n2)nc1,3.2 µM
8,O=S(=O)(C/C(=C/CO)S(=O)(=O)c1ccccc1)c1ccccc1,6.81 µM
9,CCOc1ccccc1C(=O)Nc1ccc2nc(N3CCN(c4ncccn4)CC3)cc(C)c2c1,15.2 µM
10,Cc1cc(O)c2c(c1O)C(=O)[C@]13C(=C2O)C(=O)[C@@H]2[C@@H](O)[C@H]1[C@@H]1[C@H](O)[C@H]3C(=O)C3=C(O)c4c(O)cc(C)c(O)c4C(=O)[C@]312,11.4 µM
11,CCCCc1ccc(NC(=O)C(=O)NCCN2CCN(Cc3ccc([N+](=O)[O-])cc3)CC2)cc1,0.4 µM
12,O=C(Nc1ccc(N2CCCCC2)cc1)c1ccccn1,3.23 µM
13,CC[C@@]1(O)C(=O)OCc2c1cc1n(c2=O)Cc2cc3c(CN(C)C)c(O)ccc3nc2-1,29.3 µM (inactive)
14,CC1=Nc2ccccc2/C1=C\c1sc(Nc2ccc(C)cc2)nc1O,3.6 µM
15,Cc1noc(C)c1COc1ccc(CC(=O)NCc2ccccc2)cc1,20.5 µM (inactive)
16,C=C(C)COc1ccc(-c2[nH]ncc2-c2ccc(OC)c(OC)c2)c(O)c1,5.03 µM
17,Cc1ccc(C[n+]2c(-c3ccc(C)cc3)cc(-c3ccc(C)cc3)cc2-c2ccc(C)cc2)cc1,1.19 µM
18,O=C(Nc1ccc(S(=O)(=O)Nc2ccccc2)cc1)c1ccc(CN2CCOCC2)cc1,5.23 µM
19,O=C(Nc1cccc2ccccc12)OC1C=CS(=O)(=O)C1 (stereo not drawn),51.2 µM (inactive)
20,COc1ccc(CCN2C(=O)C3C4C=CC(C3C2=O)C2C(=O)N(CCc3ccc(OC)c(OC)c3)C(=O)C42)cc1OC (stereo not drawn),5.01 µM
21,CCC1CCCCN1C(=O)c1cc(COc2ccc3ncccc3c2)on1 (stereo not drawn),2.44 µM
22,CCCCCC(=O)N[C@@H](c1ccccc1)[C@@H](O)C(=O)O[C@H]1C[C@@]2(O)[C@@H](OC(=O)c3ccccc3)C3[C@](C)(C(=O)[C@H](OC(C)=O)C(=C1C)C2(C)C)[C@@H](O)C[C@H]1OC[C@@]31OC(C)=O (stereo partly drawn),> 80 µM (inactive)
23,c1cc2c(cc1C1=NNC(=NC3CC3)SC1)OCCO2,2.33 µM
24,CCOc1ccc(-c2[nH]ncc2-c2ccc(OC)c(OC)c2)c(O)c1,10.4 µM
25,O=C(Nc1ccc(F)cc1)c1ccc(CN2CCc3ccccc3C2)cc1,4.71 µM
26,CC(C)CCOc1cccc(OCC(=O)Nc2ccncc2)c1,1.97 µM

row,Compound,IC50
1,C=CCNC(=S)N/N=C(\C)c1ccccn1,> 80 µM (inactive)
2,CCOC(=O)Nc1nc(-c2ccccc2)c(C(=O)c2ccc(Cl)cc2)s1,3.06 µM
3,COc1cc(C(=O)OCCc2cc3ccccc3c(=O)o2)cc(OC)c1OC,14.9 µM
4,COc1ccc2c(c1)C(=O)N1[C@H]3c4cc(Br)ccc4OC[C@@H]3[C@H](c3ccccc3)[C@]1(C)C(=O)N2,> 80 µM (inactive)
5,CCN(CC)c1ccc2nc3ccccc3[n+](CC)c2c1,2.01 µM
6,CCN(CC)c1ccc2nc3ccc(N)cc3[n+](-c3ccccc3)c2c1,2.72 µM
7,Cc1ccc(-c2nc(-c3ccccn3)no2)cc1,3.83 µM
8,Cc1cc2c(cc1C)C(c1ccccc1OC(C)C)CC(=O)N2 (stereo not drawn),13.3 µM
9,C[C@]12CC[C@@H]3c4cc(O)c(O)cc4CC[C@H]3[C@@H]1CC[C@@H]2O,45 µM (inactive)
10,CCOc1ccc2c(c1)sc(N)[n+]2Cc1cc(C)cc2cccnc12,7.7 µM
11,COCCCNC(=O)C(=O)Nc1ccc2c(c1)N(S(=O)(=O)c1cccs1)CCC2,11.7 µM
12,Cc1ccc(C(=O)Nc2cccc(C(=O)O)c2)cc1,4.1 µM
13,COc1ccc(NS(=O)(=O)c2ccc(-c3cnc(C4CC4)o3)cc2)cc1OC,1 µM
14,C#CC[N+](C)(C)CCCCCCCCCCCC,25.1 µM (inactive)
15,CN(Cc1ccccc1)C1=CC(=[N+]2CCCCC2)CC(C)(C)C1,0.73 µM
16,Cc1ccc(Nc2cc(C)nn2-c2nc(C)cc(=O)[nH]2)cc1,> 80 µM (inactive)
17,CC1=C([N+](=O)[O-])C(c2ccccc2)C2=C(N1)c1ccccc1C2=O (stereo not drawn),8.44 µM
18,Cc1cccc(NS(=O)(=O)c2ccc(-c3cnc(C4CC4)o3)cc2)c1C,1.7 µM
19,CCN(CC)S(=O)(=O)c1cc(NC(=O)CNc2cccc(S(=O)(=O)N3CCCC3)c2)ccc1C,2.52 µM
20,COC(=O)c1[nH]c2c(c1C)C(=O)CC(c1cccc(OC)c1)C2 (stereo not drawn),2.58 µM
21,Cc1cc(C)cc(NC(=O)c2cc(C)n(Cc3cccs3)c2C)c1,> 80 µM (inactive)
22,CCN(CC)c1ccc(-c2nn3c(-c4ccccc4OC)nnc3s2)cc1,1.87 µM
23,COc1ccc(CNC(=O)c2c(C)oc3c2C(=O)c2ccccc2C3=O)cc1,2.15 µM
24,COc1ccc(NS(=O)(=O)c2cc(-c3cnc(C4CC4)o3)ccc2C)cc1,9.37 µM
25,Cc1c(C)c2cccnc2c2ncccc12,23.1 µM (inactive)
